Values of other authors in patent US11980189B2, “Agricultural formulations, uses thereof and processes for preparation thereof” (Valent U.S.A. LLC, priority 2020, dated 2024).

**Q.** For COCC(=O)N(c1c(C)cccc1C)C(C)C(=O)OC (stereo not shown) [metalaxyl, Metalaxyl], which partial water solubility is on record?
**A.** The partial water solubility was 8,400 parts per million.
